In data set [1] the target is Phosphorylated BTK in Ramos cells (Homo sapiens (Human), UniProt Q06187). Description: Determination of phosphorylated BTK in Ramos cells (BTK phospho-Y223 HTRF). The data set is classed as cell-based. To be noted: Ramos cells stimulated with immunoglobulin M 10 μg/mL and hydrogen peroxide 3.3 mM, 10 minutes. As to the method: Ramos cells were starved in PRMI 1640 medium with 1% FBS for 2 hours. The starved Ramos cells were diluted with Hank's balanced salt solution to 5.0×10^6 cells/ml, seeded in a 96-well plate with 20 μL/well (1.0×10^5 cells/well), and cultured in a 5% CO2, 37° C. cell incubator. […]
Sequence of Phosphorylated BTK in Ramos cells (Q06187 whole entry): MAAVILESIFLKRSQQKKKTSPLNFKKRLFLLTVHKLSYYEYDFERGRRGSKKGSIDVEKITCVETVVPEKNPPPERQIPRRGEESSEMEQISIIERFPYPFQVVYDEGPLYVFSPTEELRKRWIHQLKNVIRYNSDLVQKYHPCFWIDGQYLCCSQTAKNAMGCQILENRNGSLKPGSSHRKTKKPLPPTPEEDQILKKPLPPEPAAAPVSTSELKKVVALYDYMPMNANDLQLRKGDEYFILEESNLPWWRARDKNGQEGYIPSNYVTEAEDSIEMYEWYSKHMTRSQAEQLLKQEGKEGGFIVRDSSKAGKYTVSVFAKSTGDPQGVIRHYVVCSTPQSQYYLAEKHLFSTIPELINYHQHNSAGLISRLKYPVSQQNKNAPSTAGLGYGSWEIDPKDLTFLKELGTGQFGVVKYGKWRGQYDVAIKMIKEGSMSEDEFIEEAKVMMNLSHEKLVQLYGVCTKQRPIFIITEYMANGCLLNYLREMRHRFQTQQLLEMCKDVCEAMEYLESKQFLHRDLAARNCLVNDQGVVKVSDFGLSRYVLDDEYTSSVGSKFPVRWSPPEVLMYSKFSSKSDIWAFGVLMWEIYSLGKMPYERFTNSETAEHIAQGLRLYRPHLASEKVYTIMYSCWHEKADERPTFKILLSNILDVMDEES
The 384 well plate incubated overnight in the constant temperature incubator was taken out to detect the luminescence signal using the Envision microwell plate reader at the […]. The reading value at 665 nm/615 nm of each well multiplied by 10^4 was used as the signal value of each well.
The average signal value of the wells supplemented with the mixed solution of human immunoglobulin M (final concentration was 10 μg/mL) and hydrogen peroxide (final concentration was 3.3 mM) without the test compound was regarded as the high value, and the average signal value of the wells without immunoglobulin M stimulation and without the test compound was regarded as the low value. According to the signal value in each well, the inhibition ratio (%) of each concentration of compounds was calculated, and the 205 model in XL-Fit 5.3 software (ID Business Solutions Limited) was used to obtain an IC50 value.
The inhibition ratio is calculated as follows: inhibition ratio (%)=100%−{(treating well for the test compound−negative control treating well)/(control treating well for anti-human immunoglobulin M−negative control treating well)}×100%, wherein, […]

Data set [2] is described as follows: Drug concentration in plasma of mice of the B cell activation study. The note with it: C57BL/6, plasma; mouse, 5 mg/kg oral, 16 h after administration. The data set is classed as in vivo. As to the method: The animals of each group were administered, then were placed in CO2 for anesthesia at designated time points, blood samples were taken from […] via retro-orbital bleeding, and heparin was used for anticoagulation; 90 μL of whole blood was taken from mice of each group, and added to a 96 well culture plate, and anti-mouse IgD antibody (BIO-RAD, Cat #MCA4693) was added to each well to a final concentration of 0.01 μg/μL (respectively for each drug-treated group and anti-IgD antibody-inducted vehicle group); in addition, 90 μL of whole blood of mice in the vehicle group was taken and added to the 96-well culture plate, and PBS (phosphate buffer, GIBCO, Cat # C20012500BT) was added to each well to a final concentration of 0.01 μg/μL (namely, the vehicle control group); Each group was mixed well and incubated in a 37° C./5% CO2 incubator for 4 hours. In addition, the blood of mice in the drug-treated group was centrifuged to separate plasma for blood concentration analysis.

Data set [3] deals with CIA (collagen induced arthritis) rats. Briefly: Rat arthritis model induced by type II collagen (CIA). The data set is classed as in vivo. To be noted: compared with vehicle control group. As to the method:
An appropriate amount of bovine type II collagen (CII, Chondrex (Redmond, Wash., USA), Cat #20021) was weighed and dissolved in 0.1 mole of acetic acid (SPGC Sinopharm Chemical Reagent Co., Ltd (Shanghai, P.R. China), Cat #: 10000218.), which was formulated into a solution with a concentration of 6 mg/mL, stirred at 4° C. overnight, and added with an equal volume of Freund's incomplete adjuvant (Sigma-Aldrich.(St. Louis, Mo., USA), Cat #: SLBW0366.), fully emulsified to prepare an emulsion with a CII concentration of 3 mg/mL.
Female Lewis rats were purchased from Beijing Vital River Laboratory Animal Technology Co., Ltd. (certificate number 20200928Aazz0619000579, initial body weight of 110-130 grams), and 6 rats were randomly selected as a normal group; and all of the remaining rats were immunized. In the first immunization on day 0, the rats except those in the normal group were anesthetized with isoflurane (Hebei Yipin Pharmaceutical Co., Ltd., Lot: C002170601.), and then disinfected with 75% alcohol, and 0.2 mL of emulsion was injected intradermally at the base of the tail thereof. A second challenge was carried out on day 7, and 0.2 mL of emulsion was intradermally injected using the same method. Once the animals developed symptoms on day 10, the incidence conditions thereof were closely monitored.
After grouping, the normal group was not administered, and the rats in the other groups were administered with the control vehicle, 0.25 mg/kg and 4 mg/kg of the reference GDC-0853, and each dose of compound 1 orally once a day until the end of the experiment.
The paw volume was measured on day 10 after immunization, and the left and right hind paw volumes (V) were measured every day after the paw volume increase was detected.
The arthrosis paw volumes of the left and right hind limbs of each animal were measured, and the average paw volume (APV) was calculated according to the following formula: Average paw volume APV=(Vleft+Vright)/2
The average arthrosis paw volume of each animal before administration was used as the baseline (or considered 100% inhibition of inflammation). […]
The area under the curve (AUC) of the average paw volume swelling is the area under the curve of the arthrosis score swelling calculated by the trapezoid method, and the calculation formula is: AUCAPS=1/2×(APSd1+APSd2)×(d2−d1)+1/2×(APSd2+APSd3)×(d3−d2)+ . . . +1/2×(APSdn+APSd(n-1))×(dn−dn-1). […]
ED50 is calculated by XLfit software according to the AUC inhibition ratio of the area under the curve of the average paw volume swelling. […]

The results in this text go back to patent US11655254B2, “Substituted piperazines as BTK inhibitors” (HUTCHISON MEDIPHARMA LIMITED, priority 2020, dated 2023).

Structures are written as SMILES.

The IC50 is the concentration at which inhibition is half-maximal. A low value points to greater potency in that assay. On to `C[C@H]1CN(C2COC2)C[C@H](C)N1c1ccc(Nc2cc(-c3ccnc(-n4ccn5c6c(cc5c4=O)CC(C)(C)C6)c3CO)cn(C)c2=O)nc1` [Compound 1, 2-(5-((5-((2S,6S)-2,6-dimethyl-4-(oxetan-3-yl)piperazin-1-yl)pyridin-2-yl)amino)-3′-(hydroxymethyl)-1-methyl-6-oxo-1,6-dihydro-[3,4′-bipyridin]-2′-yl)-7,7-dimethyl-7,8-dihydro-2H-cyclopenta[4,5]pyrrolo[1,2-a]pyrazin-1(6H)-one], for which the midpoint of inhibition in data set [1], the IC50, lay at 5 nM. The concentration at 16 h in data set [2] amounted to 6.27 ± 1.68 ng/mL. For the same molecule, the “effect on paw volume” value in data set [3] (0.25 mg/kg oral QD) and in data set [3] (4 mg/kg oral QD) was “significantly increase the continuous improvement of paw volume swelling” each time.
